Assay results published in patent US20030068322A1, “Methods of antibody-directed enzyme-prodrug therapy” (IMMUNOMEDICS, INC., priority 1988, published 2003).

Key:
[1] = versus CPT-11; cited from earlier work
[2] = test system: lymphoma; experiment: Therapy of lymphoma in a human patient; format: in vivo; details: 10 mg i.v. on each of 4 days after anti-lymphoma IgG-glucuronidase conjugate
Experimental: A human patient suffering from lymphoma is infused intravenously with a sterile, pyrogen-free PBS solution containing 5 mg of an anti-lymphoma IgG-glucuronidase conjugate prepared according to the example above, and labeled with I-131. […] The patient is then infused intravenously with a sterile, pyrogen-free PBS solution containing 10 mg of epirubicin glucuronide, prepared according to the example above, on each of the next 4 days.

[3] = biological target: T1, human beta-D-glucuronidase (Homo sapiens, UniProt P08236); details: Arcamone, Cancer Res. 45:5995 (1985); cited from earlier work
T1 sequence (P08236 23-651): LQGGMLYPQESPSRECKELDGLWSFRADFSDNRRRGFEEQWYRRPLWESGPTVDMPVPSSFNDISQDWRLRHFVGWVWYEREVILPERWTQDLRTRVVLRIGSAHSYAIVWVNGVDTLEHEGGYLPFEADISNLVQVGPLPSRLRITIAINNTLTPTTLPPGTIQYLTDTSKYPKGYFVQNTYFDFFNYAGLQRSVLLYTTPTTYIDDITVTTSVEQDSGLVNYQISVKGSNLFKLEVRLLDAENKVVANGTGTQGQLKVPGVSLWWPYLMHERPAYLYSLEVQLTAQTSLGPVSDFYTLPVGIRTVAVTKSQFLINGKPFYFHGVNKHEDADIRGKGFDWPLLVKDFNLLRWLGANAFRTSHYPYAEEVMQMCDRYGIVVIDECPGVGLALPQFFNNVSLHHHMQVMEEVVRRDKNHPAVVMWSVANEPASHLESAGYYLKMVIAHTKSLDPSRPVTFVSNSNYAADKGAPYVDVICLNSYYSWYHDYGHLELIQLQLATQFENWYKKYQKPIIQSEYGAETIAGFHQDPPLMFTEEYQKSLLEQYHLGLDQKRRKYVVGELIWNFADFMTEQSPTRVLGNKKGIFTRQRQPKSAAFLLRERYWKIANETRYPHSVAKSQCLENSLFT

CCc1c2c(nc3ccc(O)cc13)-c1cc3c(c(=O)n1C2)COC(=O)[C@]3(O)CC [SN-38]
toxicity relative to CPT-11 [1]: at least one hundred-fold more toxic

COc1cccc2c1C(=O)c1c(O)c3c(c(O)c1C2=O)C[C@@](O)(C(=O)CO)C[C@@H]3O[C@H]1C[C@H](N)[C@@H](O[C@@H]2O[C@H](C(=O)O)[C@@H](O)[C@H](O)[C@H]2O)[C@H](C)O1 [epirubicin glucuronide]
reduction in lymphoma by radioimmunodetection [2]: significant reduction in the lymphoma

COc1cccc2c1C(=O)c1c(O)c3c(c(O)c1C2=O)C[C@@](O)(C(=O)CO)C[C@@H]3O[C@H]1C[C@H](N)[C@@H](O)[C@H](C)O1 [epirubicin]
substrate for human beta-D-glucuronidase [3]: has been shown to be a substrate
